Measured values from ChEMBL document CHEMBL1122711, “Design, synthesis, and testing of potential antisickling agents. 4. Structure-activity relationships of benzyloxy and phenoxy acids” (J Med Chem, 1984).

How the values were obtained:
[1] = human, 10000 µM
[2] = human, 20000 µM
Description: Solubility ratio ([HbS+drug (20 mM)]/[HbS-drug]

[3] = human, 40000 µM
Description: Solubility ratio ([HbS+drug (40 mM)]/[HbS-drug])

[4] = human, 5000 µM
Description: Solubility ratio ([HbS+drug (5 mM)]/[HbS-drug])

| Compound | Solubility ratio [1] | Solubility ratio [2] | Solubility ratio [3] | Solubility ratio [4] |
| --- | --- | --- | --- | --- |
| O=C(O)COc1ccc(Br)cc1 | 1.093 | 1.18 | 1.317 | 1.049 |
| Cc1ccc(COCC(=O)O)c(C)c1 | 1.054 | 1.163 | 1.325 | 1.05 |
| O=C(O)COCc1ccc(I)cc1 | 1.09 | 1.236 | 1.35 | 1.039 |
| Cc1cc(C)cc(COCC(=O)O)c1 | 1.031 | 1.129 | 1.315 | 1.01 |
| Cc1ccc(C)c(OCC(=O)O)c1 | 1.055 | 1.114 | 1.248 | 1.031 |
| O=C(O)COc1ccc2c(c1)oc1ccccc12 | 1.054 | 1.09 | 1.185 | 1.033 |
| O=C(O)COCc1ccc(Oc2ccccc2)cc1 | 1.088 | 1.165 | 1.162 | 1.034 |
| O=C(O)COc1ccc2c(c1)Cc1ccccc1-2 | 1.042 | 1.067 | 1.113 | 1.029 |
| O=C(O)COCc1ccc(Cl)cc1 | 1.104 | 1.206 | 1.396 | 1.065 |
| COc1cc(OC)cc(OCC(=O)O)c1 | 1.052 | 1.12 | 1.232 | 1.03 |
| CC(C)(Oc1ccc(Cl)cc1)C(=O)Oc1ccccc1C(=O)O | 1.044 | 1.153 | 1.109 | 1.022 |
| Cc1ccc(COCC(=O)O)cc1C | 1.086 | 1.142 | 1.289 | 1.06 |
| COc1cc(OCC(=O)O)cc(OC)c1OC | 1.013 | 1.015 | 1.047 | 0.987 |
| Cc1ccc(COCC(=O)O)cc1 | 1.059 | 1.137 | 1.304 | 1.017 |
| O=C(O)COc1ccc([N+](=O)[O-])cc1 | 1.043 | 1.329 | 1.344 | 0.983 |
| CSc1ccc(OCC(=O)O)cc1 | 1.027 | 1.16 | 1.223 | 1.035 |
| O=C(O)COc1ccc(Cl)cc1 | 1.08 | 1.163 | 1.287 | 1.04 |
| COc1ccc(COCC(=O)O)cc1 | 1.012 | 1.054 | 1.149 | 0.996 |
| O=C(O)COc1ccc(I)cc1 | 1.046 | 1.09 | 1.176 | 1.04 |
| C=CCc1ccc(OCC(=O)O)c(OC)c1 | 1.043 | 1.141 | 1.245 | 1.033 |
| COc1cc(COCC(=O)O)ccc1C | 1.081 | 1.145 | 1.248 | 1.034 |
| Nc1ccc(OCC(=O)O)cc1 | 1.01 | 1.113 | 1.145 | 1 |
| O=C(O)C(CCOc1ccc(Br)cc1)C(=O)O | 1.134 | 1.323 | 1.36 | 1.057 |
| COc1cccc(OCC(=O)O)c1OC | 1.036 | 1.064 | 1.144 | 1.017 |
| CC(C)(C)c1ccc(OCC(=O)O)cc1 | 1.012 | 1.058 | – | 1.004 |
| O=C(O)COCc1ccc(Br)cc1 | 1.118 | 1.233 | 1.398 | 1.059 |

Next, values leading:

| Solubility ratio [1] | Solubility ratio [2] | Solubility ratio [3] | Solubility ratio [4] | Compound |
| --- | --- | --- | --- | --- |
| 1.031 | 1.076 | 1.174 | 1.006 | Nc1ccc(CSCC(=O)O)cc1 |
| 1.057 | 1.09 | 1.135 | 1.025 | O=C(O)COc1cccc(Cl)c1Cl |
| 1.053 | 1.117 | 1.236 | 1.025 | O=C(O)CSc1c(F)c(F)c(F)c(F)c1F |
| 1.043 | 1.139 | 1.284 | 1.077 | Cc1cc(Br)c(OCC(=O)O)c(Br)c1 |
| 1.149 | 1.33 | 1.382 | 1.076 | O=C(O)COCc1cc(Cl)cc(Cl)c1 |
| 1.048 | 1.141 | 1.31 | 1.035 | Cc1cc(C)cc(OCC(=O)O)c1 |
| 1.004 | 1.063 | 1.092 | 0.996 | Cc1cc(OCC(=O)O)cc(C)c1Br |
| 1.117 | 1.234 | 1.339 | 1.061 | O=C(O)COc1ccc(Cl)c(Cl)c1 |
| 1.032 | 1.07 | 1.12 | 1.018 | O=C(O)CSc1cc(Cl)c(Cl)cc1Cl |
| 1.063 | 1.113 | 1.261 | 1.023 | O=C(O)CSc1ccc(Br)cc1 |
| 1.08 | 1.171 | 1.275 | 1.05 | Cc1cc(OCC(=O)O)ccc1Cl |
| 1.053 | 1.131 | 1.307 | 1.024 | O=C(O)CSCc1ccc(Br)cc1 |
| 1.142 | 1.305 | 1.395 | 1.062 | O=C(O)CCOCc1ccc(Cl)c(Cl)c1 |
| 1.162 | 1.309 | 1.32 | 1.083 | O=C(O)COCc1ccc(Cl)c(Cl)c1 |
| 1.121 | 1.233 | 1.311 | 1.062 | COc1cc(Cl)ccc1COCC(=O)O |
| 1.054 | 1.163 | 1.31 | 1.031 | Cc1cc(C)c(COCC(=O)O)c(C)c1 |
| 1.069 | 1.168 | 1.296 | 1.026 | O=C(O)CSc1ccc(Cl)cc1 |
